Source: PMC7985170, “Marine Peptide-N6NH2 and Its Derivative-GUON6NH2 Have Potent Antimicrobial Activity Against Intracellular Edwardsiella tarda in vitro and in vivo” (Frontiers in Microbiology, 2021)
≈ marks a conversion by molar mass, not a printed value. Where a SMILES comes first, the peptide text is derived from it. Bridges are numbered along the chain shown (N, C = ends). The star is where a group is joined. Orn(α-tetramethylguanidino) = CN(C)C(=N[C@@H](CCCN)C(=O)*)N(C)C

Columns and labels:
S. pullorum CVCC1789 = assay type: cell-based, Salmonella pullorum
Method: The antimicrobial activity of peptides was determined by the microbroth dilution method ([Zhang et al., 2014]). The bacterial strains were incubated in Mueller-Hinton (MH) medium at 28°C or 37°C overnight. Bacteria (1 × 10^5 CFU/mL) were added into 96-well plates, followed by the addition of serial dilutions of peptides (from 0.0625 to 128 μg/mL). The plates were incubated at 37°C for 18–24 h. The minimal inhibitory concentration (MIC) value was determined as the lowest peptide concentration at which no bacterial growth was observed.

[1] = tested on: intracellular E. tarda in RAW 264.7 macrophages; assay type: cell-based, Edwardsiella tarda; settings: for killing of intracellular bacteria: 5–50× MIC, RAW 264.7; for killing of intracellular bacteria / killing efficacy against intracellular E. tarda: 18 h; for killing efficacy against intracellular E. tarda: 1
Method: For intracellular activity, RAW 264.7 macrophages (2.5 × 10^5 cells/mL) were cultured for 24 h in DMEM with 10% FBS (without antibiotics) ([Edwards and Massey, 2011]). Meanwhile, mid-log phase E. tarda were collected by centrifugation, diluted to a concentration of 2.5 × 10^8 CFU/mL in DMEM with 10% FBS (without antibiotic), and incubated with RAW 264.7 macrophages for 0.5 h. Gentamicin (1,000 μg/mL) was then added into the cells and incubated for 30 min to remove extracellular bacteria. After washing twice with PBS, […], washed again, and lysed with Hanks buffered saline solution (0.1% bovine serum albumin and 0.1% Triton-X). The numbers of intracellular bacteria were counted at 0 and 18 h, respectively.

E. tarda = experiment: Post-antibiotic effect (PAE); assay type: cell-based, Edwardsiella tarda; settings: 4× MIC

Structure (SMILES)	MIC (S. pullorum CVCC1789) [µg/mL]	killing of intracellular bacteria [1]	killing efficacy against intracellular E. tarda [1]	PAE, times longer than that of norfloxacin (E. tarda) [times]	intracellular inhibition rate against E. tarda ([1]; 24 h, 50)
CC(C)[C@@H]1NC(=O)CNC(=O)[C@H](CC(N)=O)NC(=O)[C@H](CCCNC(=N)N)NC(=O)[C@H](Cc2ccc(O)cc2)NC(=O)[C@H](C(C)C)NC(=O)[C@@H](NC(=O)[C@@H](NC(=O)[C@H](CC(N)=O)NC(=O)[C@H](Cc2c[nH]c3ccccc23)NC(=O)[C@H](C)NC(=O)[C@H](Cc2ccccc2)NC(=O)[C@H](CCCN)N=C(N(C)C)N(C)C)C(C)C)CSSC[C@@H](C(=O)N[C@@H](Cc2c[nH]cn2)C(=O)N[C@@H](CCCNC(=N)N)C(=O)N[C@@H](CCCNC(=N)N)C(=O)N[C@@H](C)C(=O)N[C@@H](CC(N)=O)C(N)=O)NC(=O)[C@H](C(C)C)NC(=O)[C@H](CCCNC(=N)N)NC1=O [GUON6NH2] ({Orn(α-tetramethylguanidino)}-FAWNVCVYRNGVRVCHRRAN-NH2; disulfide 6-15)	8 (≈ 3.04 µM)	killed all intracellular bacteria	over 97.07%	1.27	–
CC(C)[C@@H]1NC(=O)CNC(=O)[C@H](CC(N)=O)NC(=O)[C@H](CCCNC(=N)N)NC(=O)[C@H](Cc2ccc(O)cc2)NC(=O)[C@H](C(C)C)NC(=O)[C@@H](NC(=O)[C@@H](NC(=O)[C@H](CC(N)=O)NC(=O)[C@H](Cc2c[nH]c3ccccc23)NC(=O)[C@H](C)NC(=O)[C@H](Cc2ccccc2)NC(=O)CN)C(C)C)CSSC[C@@H](C(=O)N[C@@H](Cc2cnc[nH]2)C(=O)N[C@@H](CCCNC(=N)N)C(=O)N[C@@H](CCCNC(=N)N)C(=O)N[C@@H](C)C(=O)N[C@@H](CC(N)=O)C(N)=O)NC(=O)[C@H](C(C)C)NC(=O)[C@H](CCCNC(=N)N)NC1=O [N6NH2]	8 (≈ 3.23 µM)	killed all intracellular bacteria	96.82%	–	96.82–100%
